Where “and” joins values, the source holds several entries; their conditions need not be identical. Equal entries are not always repeated. Where two headings read alike, the source gives them in different places.
Key:
[1] = Plasma pharmacokinetics in rats after a 30-min intravenous infusion of Kang-Ai injection; format: in vivo, Sprague–Dawley rats; conditions: male, Sprague-Dawley, in vivo
Procedure: Specific pathogen free (SPF) grade male Sprague–Dawley rats (250 ± 20) g were provided by the Experimental Animal Center of Zhengzhou University (Zhengzhou, China). These rats were kept in a designated animal room at constant temperature (22 ± 2) °C and humidity (50 ± 20) % with 12 h of light/dark per day and free access to water and food. All protocols of animal experiments were approved in accordance with the Regulations of Experimental Animal Administration issued by the Ethics Review Committee for Animal Experimentation of Jinan University (Ethical Review NO. 20190301010). Prior to the experiments, the rats were fasted for 12 h but with free access to water. After study use, the rats were euthanized with CO2 gas.
The rats in this study all received a single 30-min intravenous infusion of Kang-Ai injection via the tail veins using TYD01-02 infusion pumps (Lead Fluid, Baoding, China). The dose was derived from the label daily dose of Kang-Ai injection (60 mL/person, once daily) according to dose normalization by body surface area. For plasma pharmacokinetic studies, the rats were randomly received a single intravenous 30 min-bolus dose at 6 mL/kg. Blood samples (100 μL) were collected from the rats’ external jugular veins into heparinized polypropylene tubes at 5, 15, 30, 45 min, and 1, 1.5, 2, 3, 4, 6, 8, 12 h. After gently shaking for 10 s, the blood samples were centrifuged at 13000 g for 10 min to yield plasma samples, which were kept frozen at − 80 °C until analysis.
(§1) Pharmacokinetic parameters were estimated by non-compartmental analysis using WinNonlin 6.3 software (Pharsight, NC, US). Data are presented as the mean ± SD (n = 3). The area under the concentration–time curve up to the last measured point in time (AUC0-t) was calculated using the trapezoidal rule. The total plasma clearance (CLtot, p) was calculated by dividing the compound dose by the AUC0-∞, and the distribution volume at steady state (VSS) was estimated by multiplying the CLtot, p by the mean residence time (MRT). The renal excretory clearance (CLR) and hepatobiliary (CLB) was determined by dividing the cumulative amount excreted into urine (Cum.Ae-U) and bile (Cum.Ae-B) by the plasma AUC0-∞, respectively. The fractions of dose excreted into urine (fe-U) and the fractions of dose excreted into bile (fe-B) were established using the relationship Cum.Ae-U/Dose and Cum.Ae-B/Dose, respectively. Mean differences between treatment and control groups were analyzed by two-tailed unpaired Student’s t test by Graphpad Prism V5 software (SanDiego, CA). The level of significance was set at p < 0.05 (∗), p < 0.01 (∗∗) or p < 0.001 (∗∗∗).

[2] = Urinary (renal) excretion in rats after a 30-min infusion of Kang-Ai injection; format: in vivo, Sprague–Dawley rats; conditions: Kang-Ai injection 6 mL/kg iv; for CL renal: male, Sprague-Dawley, rat, read-out: CLR (renal excretory clearance) (converted); for fe-U,0–12h (fraction of dose excreted into urine): rat urine 0–12 h
Procedure: (§2) For urine sampling, the rats were housed singly in metabolic cages. And then, the urine samples were collected at 0–4, 4–8 and 8–12 h after starting infusion and were weighed. Likewise, bile samples were also collected at 0–3, 3–6, 6–9 and 9–12 h after starting infusion and were weighed. The urine and bile collection tubes were all frozen at − 80 °C.
as §1

[3] = Biliary (hepatobiliary) excretion in rats after a 30-min infusion of Kang-Ai injection; format: in vivo, Sprague–Dawley rats; conditions: rat bile 0–12 h; Kang-Ai injection 6 mL/kg iv
Procedure: as §2, §1

[4] = Protein binding assay (equilibrium dialysis); format: in vitro ADME, rat
Procedure: Binding of circulating alkaloids and saponins to rat plasma was measured by equilibrium dialysis using Spectra/Por 2 dialysis membranes (molecular weight cutoff, 12–14 kDa; Rancho Dominguez, CA, USA) as described. After equilibrating for 24 h at 55 rpm and 37 °C, the dialysate and the plasma were sampled for analysis. […] The concentrations of tested matrine, oxysophocarpine and oxymatrine were 2 μmol/L, while those of astragaloside IV, III, and ginsenosides Rh1, Rg2, Rg1, Rf, Re, Rd, Rc, Rb1, Rb2, notoginsenosides R1, R2, were 4 μmol/L. The unbound fraction (fu-plasma) in rat plasma was calculated as follow: fu-plasma = Cd/Cp × 100%, where the Cd and Cp values were the concentrations of each analyte in the dialysate sample and in the post-dialysis plasma sample, respectively.

[5] = Stability tests of analytes in rat plasma QC samples; format: in vitro ADME; conditions: rat plasma
Procedure: […] The dilution integrity was investigated by analyzing six replicate samples with each analyte, and each analyte were diluted 10-fold with blank rat matrix. Furthermore, the diluted samples were analyzed using freshly prepared calibration curve to calculate RE and RSD, which should be no more than ± 15% as criterion.

[6] = rat plasma, 30-min iv infusion of Kang-Ai injection 6 mL/kg, read-out: Cmax
[7] = rat plasma, 30-min iv infusion of Kang-Ai injection 6 mL/kg, read-out: t1/2 (converted)
[8] = rat, 30-min iv infusion of Kang-Ai injection 6 mL/kg, Table 1 unit, read-out: CLtot, p (converted)
[9] = rat, 30-min iv infusion of Kang-Ai injection 6 mL/kg, Table 1 unit, read-out: VSS
[10] = rat plasma, equilibrium dialysis 24 h, 37 °C, 2 μmol/L alkaloids, 4 μmol/L saponins, read-out: fu-plasma (unbound fraction)

| SMILES | fe-U,0–12h (fraction of dose excreted into urine) [2] | fe-B,0–12h (fraction of dose excreted into bile) [3] | At -80 °C for 48 h, Mean±SD ([5]; nominal conc. 20 nM) | At -80 °C for 48 h, RE ([5]; nominal conc. 20 nM) | Extracted samples at 8 °C for 18 h, Mean±SD ([5]; nominal conc. 20 nM) | Extracted samples at 8 °C for 18 h, RE ([5]; nominal conc. 20 nM) | Short-term stability at room temperature for 6 h, Mean±SD ([5]; nominal conc. 20 nM) | Short-term stability at room temperature for 6 h, RE ([5]; nominal conc. 20 nM) | Three freeze-thaw cycles (-80 °C ↔ 23 °C), Mean±SD ([5]; nominal conc. 20 nM) | Three freeze-thaw cycles (-80 °C ↔ 23 °C), RE ([5]; nominal conc. 20 nM) | At -80 °C for 48 h, Mean±SD ([5]; nominal conc. 100 nM) | At -80 °C for 48 h, RE ([5]; nominal conc. 100 nM) | Extracted samples at 8 °C for 18 h, Mean±SD ([5]; nominal conc. 100 nM) | Extracted samples at 8 °C for 18 h, RE ([5]; nominal conc. 100 nM) | Short-term stability at room temperature for 6 h, Mean±SD ([5]; nominal conc. 100 nM) | Short-term stability at room temperature for 6 h, RE ([5]; nominal conc. 100 nM) | Three freeze-thaw cycles (-80 °C ↔ 23 °C), Mean±SD ([5]; nominal conc. 100 nM) | Three freeze-thaw cycles (-80 °C ↔ 23 °C), RE ([5]; nominal conc. 100 nM) | At -80 °C for 48 h, Mean±SD ([5]; nominal conc. 400 nM) | At -80 °C for 48 h, RE ([5]; nominal conc. 400 nM) | also measured |
| --- | --- | --- | --- | --- | --- | --- | --- | --- | --- | --- | --- | --- | --- | --- | --- | --- | --- | --- | --- | --- | --- |
| O=C1C=CC[C@@H]2[C@H]3CCC[N+]4([O-])CCC[C@@H](CN12)[C@@H]34 (stereo partly shown) [Compound A2, Oxysophocarpine] | 38.60% and 38.60 ± 11.22% | 51.92% and 51.92 ± 8.98% | 21.90 ± 0.32 nM | 10.73% | 22.58 ± 0.11 nM | 13.22% | 20.94 ± 1.33 nM | 12.22% | 22.63 ± 0.15 nM | 13.81% | 112.64 ± 0.85 nM | 13.54% | 108.59 ± 6.59 nM | 14.25% | 103.12 ± 8.16 nM | 12.17% | 103.40 ± 9.41 nM | 12.06% | 437.15 ± 14.08 nM | 11.61% | Cmax [1, 6]: 170 ± 27.4 nM; half-life [1, 7]: 1.78 ± 1.55 h; clearance [1, 8]: 0.205 mL/min; Vd [1, 9]: 0.0252 ± 0.0148 L; clearance ([1]; rat, Kang-Ai injection 6 mL/kg iv, read-out: CLtot, p (converted)): 0.205 mL/min/kg; Vd ([1]; rat, Kang-Ai injection 6 mL/kg iv, read-out: VSS (Vd)): 0.0252 L/kg; CL renal ([2]; in vivo): 0.0792 mL/min; fraction of dose excreted unchanged via renal plus hepatobiliary excretion (sum of fe-U and fe-B) ([2]; rat urine + bile, 0–12 h): exceeded 90%; fraction unbound at 24 h [4, 10]: 0.912 ± 0.0495; Extracted samples at 8 °C for 18 h, Mean±SD ([5]; nominal conc. 400 nM): 432.22 ± 7.29 nM; Extracted samples at 8 °C for 18 h, RE ([5]; nominal conc. 400 nM): 9.98%; Short-term stability at room temperature for 6 h, Mean±SD ([5]; nominal conc. 400 nM): 439.31 ± 14.14 nM; Short-term stability at room temperature for 6 h, RE ([5]; nominal conc. 400 nM): 12.94%; Three freeze-thaw cycles (-80 °C ↔ 23 °C), Mean±SD ([5]; nominal conc. 400 nM): 418.53 ± 37.48 nM; Three freeze-thaw cycles (-80 °C ↔ 23 °C), RE ([5]; nominal conc. 400 nM): 14.91% |
| CC(C)=CCC[C@](C)(O)[C@H]1CC[C@]2(C)[C@@H]1[C@H](O)C[C@@H]1[C@@]3(C)CC[C@H](O)C(C)(C)[C@@H]3[C@@H](O[C@@H]3O[C@H](CO)[C@@H](O)[C@H](O)[C@H]3O)C[C@]12C [Compound C1, Ginsenoside Rh1] | 9.59 ± 1.68% | 9.71 ± 0.98% | 22.38 ± 0.33 nM | 13.76% | 20.79 ± 2.88 nM | -12.72% | 20.81 ± 2.57 nM | 13.31% | 20.14 ± 2.50 nM | -13.10% | 88.26 ± 1.17 nM | -13.03% | 100.20 ± 11.08 nM | 12.81% | 92.25 ± 8.56 nM | -13.70% | 99.91 ± 9.81 nM | -10.86% | 379.88 ± 25.01 nM | -9.26% | Cmax [1, 6]: 140 ± 20.4 nM; half-life [1, 7]: 0.44 ± 0.39 h; clearance [1, 8]: 3.31 mL/min; Vd [1, 9]: 0.0936 ± 0.0456 L; AUC(0-t) ([1]; rat, iv, rat plasma, 30-min iv infusion of Kang-Ai injection 6 mL/kg, read-out: AUC0–12h): 0.0912 ± 0.00477 µM·h; CL renal ([2]; in vivo): 0.316 mL/min; fraction unbound at 24 h [4, 10]: 0.463 ± 0.0503; Extracted samples at 8 °C for 18 h, Mean±SD ([5]; nominal conc. 400 nM): 424.42 ± 36.39 nM; Extracted samples at 8 °C for 18 h, RE ([5]; nominal conc. 400 nM): 12.32%; Short-term stability at room temperature for 6 h, Mean±SD ([5]; nominal conc. 400 nM): 376.44 ± 26.61 nM; Short-term stability at room temperature for 6 h, RE ([5]; nominal conc. 400 nM): -12.62%; Three freeze-thaw cycles (-80 °C ↔ 23 °C), Mean±SD ([5]; nominal conc. 400 nM): 370.01 ± 38.18 nM; Three freeze-thaw cycles (-80 °C ↔ 23 °C), RE ([5]; nominal conc. 400 nM): -13.77% |
| CC(C)=CCC[C@](C)(O)[C@H]1CC[C@]2(C)[C@@H]1[C@H](O)C[C@@H]1[C@@]3(C)CC[C@H](O)C(C)(C)[C@@H]3[C@@H](O[C@@H]3O[C@H](CO)[C@@H](O)[C@H](O)[C@H]3O[C@@H]3O[C@@H](C)[C@H](O)[C@@H](O)[C@H]3O)C[C@]12C [Compound C5, Ginsenoside Rg2] | 2.23 ± 0.61% | 20.76 ± 3.37% | 19.84 ± 1.04 nM | -6.64% | 21.07 ± 0.87 nM | 8.32% | 19.68 ± 2.51 nM | 12.85% | 21.26 ± 1.22 nM | 11.13% | 96.95 ± 8.62 nM | -8.82% | 98.05 ± 6.29 nM | -8.46% | 87.52 ± 0.79 nM | -12.97% | 104.41 ± 11.32 nM | 12.73% | 410.70 ± 32.70 nM | 8.22% | Cmax ([1]; rat, iv): 231 ± 17.4 nM; clearance ([1]; rat, iv): 2.63 mL/min; half-life ([1]; rat, iv): 9.77 ± 13.7 h; AUC(0-t) ([1]; rat, iv, AUC0–12h): > 0.1 µM·h; CL renal ([2]; urine and plasma): 0.0552 mL/min; fraction unbound at 24 h ([4]; rat, plasma): 0.265 ± 0.0328; Extracted samples at 8 °C for 18 h, Mean±SD ([5]; nominal conc. 400 nM): 404.47 ± 42.95 nM; Extracted samples at 8 °C for 18 h, RE ([5]; nominal conc. 400 nM): -10.83%; Short-term stability at room temperature for 6 h, Mean±SD ([5]; nominal conc. 400 nM): 361.60 ± 11.46 nM; Short-term stability at room temperature for 6 h, RE ([5]; nominal conc. 400 nM): -11.77%; Three freeze-thaw cycles (-80 °C ↔ 23 °C), Mean±SD ([5]; nominal conc. 400 nM): 374.05 ± 38.03 nM; Three freeze-thaw cycles (-80 °C ↔ 23 °C), RE ([5]; nominal conc. 400 nM): -12.71% |

From article PMC7339578, “Multiple circulating alkaloids and saponins from intravenous Kang-Ai injection inhibit human cytochrome P450 and UDP-glucuronosyltransferase isozymes: potential drug–drug interactions” (Chinese Medicine, 2020)
